Test results published in the supplement of paper PMC10307832.

Columns and labels:
Experiment in all cases: relative viability (nuclei count vs DMSO), 5 days (fraction); higher = more cells survive
Vandetanib + Tozasertib = compound: COc1cc2/c(=N/c3ccc(Br)cc3F)nc[nH]c2cc1OCC1CCN(C)CC1 [Vandetanib] + Cc1cc(Nc2cc(N3CCN(C)CC3)nc(Sc3ccc(NC(=O)C4CC4)cc3)n2)n[nH]1 [Tozasertib] (partner 0.1 µM)
In short: (§1)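 Lung cancer cell lines in 1536-well plates got either a single drug or a fixed anchor-drug dose together with five library-drug doses (not always all listed) in √10 steps, by pin tool, on the day after seeding. Nuclei were counted after 5 days, and relative viability is the treated-to-vehicle ratio of nuclei counts. Values are medians of duplicate plates.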

NVP-TAE684 + Crizotinib = compound: COc1cc(N2CCC(N3CCN(C)CC3)CC2)ccc1Nc1ncc(Cl)c(Nc2ccccc2S(=O)(=O)C(C)C)n1 [NVP-TAE684] + C[C@@H](Oc1cc(-c2cnn(C3CCNCC3)c2)cnc1N)c1c(Cl)ccc(F)c1Cl [Crizotinib] (partner 1 µM)
In short: as §1

CUDC-101 + Navitoclax = compound: C#Cc1cccc(Nc2ncnc3cc(OC)c(OCCCCCCC(=O)NO)cc23)c1 [CUDC-101] + CC1(C)CCC(c2ccc(Cl)cc2)=C(CN2CCN(c3ccc(C(=O)NS(=O)(=O)c4ccc(N[C@H](CCN5CCOCC5)CSc5ccccc5)c(S(=O)(=O)C(F)(F)F)c4)cc3)CC2)C1 [Navitoclax] (partner 0.5 µM)
In short: as §1

[1] = compound: C1=CC=C2C(=C1)N=C(S2)C(C#N)C3=NC(=NC=C3)NCCC4=CN=CC=C4 + C[C@]1(O)C[C@@H](c2nc(-c3ccc4ccc(-c5ccccc5)nc4c3)c3c(N)nccn32)C1 [Linsitinib] (partner 1 µM)
In short: as §1

ChaGo-K-1
relative viability (Vandetanib + Tozasertib; first compound 0.02 µM): 0.2 | relative viability (Vandetanib + Tozasertib; first compound 0.06325 µM): 0.239 | relative viability (Vandetanib + Tozasertib; first compound 0.2 µM): 0.248 | relative viability (Vandetanib + Tozasertib; first compound 0.6325 µM): 0.212 | relative viability (Vandetanib + Tozasertib; first compound 2 µM): 0.215 | relative viability (NVP-TAE684 + Crizotinib; first compound 0.2 µM): 1.09 | relative viability (NVP-TAE684 + Crizotinib; first compound 0.6325 µM): 1.11 | relative viability (NVP-TAE684 + Crizotinib; first compound 2 µM): 0.713 | relative viability (CUDC-101 + Navitoclax; first compound 0.01 µM): 1.34 | relative viability (CUDC-101 + Navitoclax; first compound 0.03162 µM): 1.48 | relative viability (CUDC-101 + Navitoclax; first compound 0.1 µM): 1.04 | relative viability (CUDC-101 + Navitoclax; first compound 0.3162 µM): 1.06 | relative viability (CUDC-101 + Navitoclax; first compound 1 µM): 0.92

EBC-1
relative viability ([1]; first compound 0.005 µM): 1.04 | relative viability ([1]; first compound 0.01581 µM): 0.871 | relative viability ([1]; first compound 0.05 µM): 0.502 | relative viability ([1]; first compound 0.1581 µM): 1.01 | relative viability ([1]; first compound 0.5 µM): 0.812 | relative viability (NVP-TAE684 + Crizotinib; first compound 0.2 µM): 0.208 | relative viability (NVP-TAE684 + Crizotinib; first compound 0.6325 µM): 0.174 | relative viability (NVP-TAE684 + Crizotinib; first compound 2 µM): 0.155 | relative viability (CUDC-101 + Navitoclax; first compound 0.01 µM): 0.41 | relative viability (CUDC-101 + Navitoclax; first compound 0.03162 µM): 0.377 | relative viability (CUDC-101 + Navitoclax; first compound 0.1 µM): 0.365 | relative viability (CUDC-101 + Navitoclax; first compound 0.3162 µM): 0.184 | relative viability (CUDC-101 + Navitoclax; first compound 1 µM): 0.144

EKVX
relative viability (Vandetanib + Tozasertib; first compound 0.02 µM): 0.431 | relative viability (Vandetanib + Tozasertib; first compound 0.06325 µM): 0.424 | relative viability (Vandetanib + Tozasertib; first compound 0.2 µM): 0.398 | relative viability (Vandetanib + Tozasertib; first compound 0.6325 µM): 0.409 | relative viability (Vandetanib + Tozasertib; first compound 2 µM): 0.27 | relative viability ([1]; first compound 0.005 µM): 0.83 | relative viability ([1]; first compound 0.01581 µM): 1.17 | relative viability ([1]; first compound 0.05 µM): 1.06 | relative viability ([1]; first compound 0.1581 µM): 1.02 | relative viability ([1]; first compound 0.5 µM): 0.829 | relative viability (NVP-TAE684 + Crizotinib; first compound 0.2 µM): 0.775 | relative viability (NVP-TAE684 + Crizotinib; first compound 0.6325 µM): 0.859 | relative viability (NVP-TAE684 + Crizotinib; first compound 2 µM): 0.582 | relative viability (CUDC-101 + Navitoclax; first compound 0.01 µM): 0.972 | relative viability (CUDC-101 + Navitoclax; first compound 0.03162 µM): 0.977 | relative viability (CUDC-101 + Navitoclax; first compound 0.1 µM): 0.874 | relative viability (CUDC-101 + Navitoclax; first compound 0.3162 µM): 0.941 | relative viability (CUDC-101 + Navitoclax; first compound 1 µM): 0.593

EMC-BAC-2
relative viability (Vandetanib + Tozasertib; first compound 0.02 µM): 0.317 | relative viability (Vandetanib + Tozasertib; first compound 0.06325 µM): 0.307 | relative viability (Vandetanib + Tozasertib; first compound 0.2 µM): 0.151 | relative viability (Vandetanib + Tozasertib; first compound 0.6325 µM): 0.319 | relative viability (Vandetanib + Tozasertib; first compound 2 µM): 0.286 | relative viability ([1]; first compound 0.005 µM): 0.568 | relative viability ([1]; first compound 0.01581 µM): 0.877 | relative viability ([1]; first compound 0.05 µM): 0.785 | relative viability ([1]; first compound 0.1581 µM): 0.925 | relative viability ([1]; first compound 0.5 µM): 0.728 | relative viability (NVP-TAE684 + Crizotinib; first compound 0.2 µM): 0.751 | relative viability (NVP-TAE684 + Crizotinib; first compound 0.6325 µM): 0.806 | relative viability (NVP-TAE684 + Crizotinib; first compound 2 µM): 0.441 | relative viability (CUDC-101 + Navitoclax; first compound 0.01 µM): 1.15 | relative viability (CUDC-101 + Navitoclax; first compound 0.03162 µM): 1.19 | relative viability (CUDC-101 + Navitoclax; first compound 0.1 µM): 1.19 | relative viability (CUDC-101 + Navitoclax; first compound 0.3162 µM): 1.1 | relative viability (CUDC-101 + Navitoclax; first compound 1 µM): 0.923

EPLC-272H
relative viability (Vandetanib + Tozasertib; first compound 0.02 µM): 0.25 | relative viability (Vandetanib + Tozasertib; first compound 0.2 µM): 0.285 | relative viability (Vandetanib + Tozasertib; first compound 0.6325 µM): 0.282 | relative viability (Vandetanib + Tozasertib; first compound 2 µM): 0.306 | relative viability ([1]; first compound 0.005 µM): 1.01 | relative viability ([1]; first compound 0.01581 µM): 1.3 | relative viability ([1]; first compound 0.05 µM): 1.12 | relative viability ([1]; first compound 0.1581 µM): 1.27 | relative viability ([1]; first compound 0.5 µM): 1.12 | relative viability (NVP-TAE684 + Crizotinib; first compound 0.2 µM): 0.898 | relative viability (NVP-TAE684 + Crizotinib; first compound 2 µM): 0.873 | relative viability (CUDC-101 + Navitoclax; first compound 0.01 µM): 1.42 | relative viability (CUDC-101 + Navitoclax; first compound 0.03162 µM): 1.2 | relative viability (CUDC-101 + Navitoclax; first compound 0.1 µM): 1.15 | relative viability (CUDC-101 + Navitoclax; first compound 0.3162 µM): 0.871 | relative viability (CUDC-101 + Navitoclax; first compound 1 µM): 0.59

H3255
relative viability (Vandetanib + Tozasertib; first compound 0.02 µM): 0.469 | relative viability (Vandetanib + Tozasertib; first compound 0.06325 µM): 0.727 | relative viability (Vandetanib + Tozasertib; first compound 0.2 µM): 0.579 | relative viability (Vandetanib + Tozasertib; first compound 0.6325 µM): 0.554 | relative viability (Vandetanib + Tozasertib; first compound 2 µM): 0.345 | relative viability ([1]; first compound 0.005 µM): 0.89 | relative viability ([1]; first compound 0.01581 µM): 1.01 | relative viability ([1]; first compound 0.05 µM): 0.908 | relative viability ([1]; first compound 0.1581 µM): 1.05 | relative viability ([1]; first compound 0.5 µM): 1.04 | relative viability (NVP-TAE684 + Crizotinib; first compound 0.2 µM): 0.988 | relative viability (NVP-TAE684 + Crizotinib; first compound 0.6325 µM): 0.646 | relative viability (NVP-TAE684 + Crizotinib; first compound 2 µM): 0.7 | relative viability (CUDC-101 + Navitoclax; first compound 0.01 µM): 0.688 | relative viability (CUDC-101 + Navitoclax; first compound 0.03162 µM): 0.435 | relative viability (CUDC-101 + Navitoclax; first compound 0.1 µM): 0.174 | relative viability (CUDC-101 + Navitoclax; first compound 0.3162 µM): 0.126 | relative viability (CUDC-101 + Navitoclax; first compound 1 µM): 0.0597

HARA
relative viability (Vandetanib + Tozasertib; first compound 0.02 µM): 0.111 | relative viability (Vandetanib + Tozasertib; first compound 0.06325 µM): 0.118 | relative viability (Vandetanib + Tozasertib; first compound 0.2 µM): 0.0738 | relative viability (Vandetanib + Tozasertib; first compound 0.6325 µM): 0.466 | relative viability (Vandetanib + Tozasertib; first compound 2 µM): 0.0849 | relative viability ([1]; first compound 0.005 µM): 0.731 | relative viability ([1]; first compound 0.01581 µM): 0.937 | relative viability ([1]; first compound 0.05 µM): 0.934 | relative viability ([1]; first compound 0.1581 µM): 1.12 | relative viability ([1]; first compound 0.5 µM): 0.788 | relative viability (NVP-TAE684 + Crizotinib; first compound 0.2 µM): 1.07 | relative viability (NVP-TAE684 + Crizotinib; first compound 0.6325 µM): 1.02 | relative viability (NVP-TAE684 + Crizotinib; first compound 2 µM): 0.508 | relative viability (CUDC-101 + Navitoclax; first compound 0.01 µM): 1.13 | relative viability (CUDC-101 + Navitoclax; first compound 0.03162 µM): 1.16 | relative viability (CUDC-101 + Navitoclax; first compound 0.1 µM): 1.09 | relative viability (CUDC-101 + Navitoclax; first compound 0.3162 µM): 1.14 | relative viability (CUDC-101 + Navitoclax; first compound 1 µM): 0.837

HCC-15
relative viability (Vandetanib + Tozasertib; first compound 0.02 µM): 0.555 | relative viability (Vandetanib + Tozasertib; first compound 0.06325 µM): 0.416 | relative viability (Vandetanib + Tozasertib; first compound 0.2 µM): 0.07 | relative viability (Vandetanib + Tozasertib; first compound 0.6325 µM): 0.35 | relative viability (Vandetanib + Tozasertib; first compound 2 µM): 0.347 | relative viability ([1]; first compound 0.005 µM): 0.842 | relative viability ([1]; first compound 0.01581 µM): 0.911 | relative viability ([1]; first compound 0.05 µM): 0.926 | relative viability ([1]; first compound 0.1581 µM): 0.888 | relative viability ([1]; first compound 0.5 µM): 0.882 | relative viability (NVP-TAE684 + Crizotinib; first compound 0.2 µM): 0.806 | relative viability (NVP-TAE684 + Crizotinib; first compound 0.6325 µM): 0.792 | relative viability (NVP-TAE684 + Crizotinib; first compound 2 µM): 0.319 | relative viability (CUDC-101 + Navitoclax; first compound 0.01 µM): 0.689 | relative viability (CUDC-101 + Navitoclax; first compound 0.03162 µM): 0.69 | relative viability (CUDC-101 + Navitoclax; first compound 0.1 µM): 0.762 | relative viability (CUDC-101 + Navitoclax; first compound 0.3162 µM): 0.678 | relative viability (CUDC-101 + Navitoclax; first compound 1 µM): 0.566

HCC-44
relative viability (Vandetanib + Tozasertib; first compound 0.02 µM): 0.924 | relative viability (Vandetanib + Tozasertib; first compound 0.06325 µM): 0.851 | relative viability (Vandetanib + Tozasertib; first compound 0.2 µM): 1.01 | relative viability (Vandetanib + Tozasertib; first compound 0.6325 µM): 1.05 | relative viability (Vandetanib + Tozasertib; first compound 2 µM): 0.949 | relative viability ([1]; first compound 0.005 µM): 0.655 | relative viability ([1]; first compound 0.01581 µM): 0.724 | relative viability ([1]; first compound 0.05 µM): 0.696 | relative viability ([1]; first compound 0.1581 µM): 0.666 | relative viability ([1]; first compound 0.5 µM): 0.65 | relative viability (NVP-TAE684 + Crizotinib; first compound 0.2 µM): 0.782 | relative viability (NVP-TAE684 + Crizotinib; first compound 0.6325 µM): 0.868 | relative viability (NVP-TAE684 + Crizotinib; first compound 2 µM): 0.489 | relative viability (CUDC-101 + Navitoclax; first compound 0.01 µM): 0.836 | relative viability (CUDC-101 + Navitoclax; first compound 0.03162 µM): 0.933 | relative viability (CUDC-101 + Navitoclax; first compound 0.1 µM): 0.877 | relative viability (CUDC-101 + Navitoclax; first compound 0.3162 µM): 1.06 | relative viability (CUDC-101 + Navitoclax; first compound 1 µM): 0.827
